For six compounds, IC50 results are on record in patent US20260306642A1, “STAT DEGRADERS AND USES THEREOF” (Recludix Pharma, Inc., priority 2023, published 2026).

Broadly, the pIC50 is the IC50 on a negative log10 scale, so that one unit is a factor of ten.

One assay has as its target T1, STAT6 (Homo sapiens, UniProt P42226).
T1 construct: Recombinant STAT6 protein (STAT6(W123-T658))
T1 sequence (P42226 123-658): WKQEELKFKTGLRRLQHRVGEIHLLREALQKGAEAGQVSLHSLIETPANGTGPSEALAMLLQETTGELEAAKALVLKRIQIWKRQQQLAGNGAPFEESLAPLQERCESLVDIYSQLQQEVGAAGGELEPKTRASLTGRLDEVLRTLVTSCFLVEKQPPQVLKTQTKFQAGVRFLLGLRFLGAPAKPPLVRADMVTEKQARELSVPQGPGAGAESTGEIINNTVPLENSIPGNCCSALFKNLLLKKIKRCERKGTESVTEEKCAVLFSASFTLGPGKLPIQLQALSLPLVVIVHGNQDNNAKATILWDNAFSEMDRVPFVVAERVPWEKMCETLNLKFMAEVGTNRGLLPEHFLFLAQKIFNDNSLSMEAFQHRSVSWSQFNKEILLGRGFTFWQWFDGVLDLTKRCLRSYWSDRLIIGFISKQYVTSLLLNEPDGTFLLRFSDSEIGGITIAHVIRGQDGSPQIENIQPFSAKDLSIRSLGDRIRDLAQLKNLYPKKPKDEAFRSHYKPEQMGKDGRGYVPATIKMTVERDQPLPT
Briefly: STAT6 Fluorescence Polarization (FP) Assay. The class given is binding. A digest of the protocol: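 STAT6(W123-T658) at 250 nM with 2 nM 5-FAM-ApYKPFQDLI-NH2 probe in HEPES pH 7.4, 50 mM NaCl, EDTA, Tween 20, DTT, 1% DMSO. FP read after 45 min at room temperature; IC50 from nonlinear fit of mP versus log concentration.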
In general terms: Fluorescence polarisation rises when a labelled molecule tumbles more slowly, as on binding a larger partner.

In the next assay the target is T2, pSTAT6 (Homo sapiens, UniProt P42226).
T2 sequence (P42226 1-847): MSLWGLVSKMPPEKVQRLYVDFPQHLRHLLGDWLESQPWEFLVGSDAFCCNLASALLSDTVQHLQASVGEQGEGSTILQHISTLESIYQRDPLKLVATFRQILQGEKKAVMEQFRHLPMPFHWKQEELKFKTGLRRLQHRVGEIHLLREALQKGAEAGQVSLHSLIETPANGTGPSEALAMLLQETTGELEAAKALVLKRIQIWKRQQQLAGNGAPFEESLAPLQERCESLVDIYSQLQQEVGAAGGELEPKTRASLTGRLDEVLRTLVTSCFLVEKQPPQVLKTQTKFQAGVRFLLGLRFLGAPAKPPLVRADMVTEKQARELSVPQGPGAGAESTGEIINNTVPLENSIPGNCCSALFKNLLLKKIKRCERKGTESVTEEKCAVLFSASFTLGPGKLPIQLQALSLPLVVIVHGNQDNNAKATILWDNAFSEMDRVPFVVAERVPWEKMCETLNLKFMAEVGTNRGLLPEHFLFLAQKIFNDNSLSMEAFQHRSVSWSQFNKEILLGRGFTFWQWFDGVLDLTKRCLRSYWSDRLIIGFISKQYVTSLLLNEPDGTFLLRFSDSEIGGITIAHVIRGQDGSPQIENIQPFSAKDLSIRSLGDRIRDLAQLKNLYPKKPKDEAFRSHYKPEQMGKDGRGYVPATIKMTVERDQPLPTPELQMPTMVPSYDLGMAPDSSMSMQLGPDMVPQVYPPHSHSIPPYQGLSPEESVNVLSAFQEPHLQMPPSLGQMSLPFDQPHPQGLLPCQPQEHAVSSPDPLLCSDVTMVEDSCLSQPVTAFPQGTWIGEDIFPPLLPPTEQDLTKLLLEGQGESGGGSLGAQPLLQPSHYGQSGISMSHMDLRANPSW
In words: MSD-pSTAT-PBMC Assay (pSTAT6, IL-4 stimulated). Format: cell-based. The following applies: compound 3 hrs, then 1 ng/mL IL-4 10 min, pY641-STAT6, read-out: pSTAT6 IC50. An excerpt: Cryopreserved Peripheral Blood Mononuclear Cells (PBMC) are from AllCells. Recombinant Human IL-4 and IL-6 are from Peprotech. Mouse monoclonal anti-STAT3 antibody, rabbit monoclonal anti-pY705-STAT3 antibody, rabbit monoclonal Anti-pY641-STAT6 antibody, and lysis buffer are from Cell Signaling Technology (CST). Mouse monoclonal anti-STAT6 antibody is from BioLegend. Assay plates, blocker, and anti-rabbit secondary antibody are from Meso Scale Discovery (MSD).
Cryopreserved PBMCs were thawed out and allowed to recover overnight in IMDM+10% heat-inactivated FBS prior to plating 50,000 (STAT3) or 25,000 (STAT6) cells per well in 96-well U-bottom tissue culture plates. Cells were treated with compound for 3 hrs, then stimulated with 10 ng/mL IL-6 (STAT3) or 1 ng/mL IL-4 (STAT6) for 10 min. Cells were then spun down and washed with ice-cold PBS prior to lysing the cell pellet with 1× lysis buffer (CST) with 1× HALT protease and phosphatase inhibitor cocktail (Thermo). Lysates were transferred to and incubated overnight at 4° C. with shaking in QuickPlex 96-well high bind assay plates (MSD) pre-coated overnight with 30 μL per well of […] mouse monoclonal anti-STAT3 antibody (STAT3) or 2 μg/mL mouse monoclonal anti-STAT6 antibody (STAT6) in 1× PBS, and pre-blocked for 1 hour with 3% Blocker-A (MSD). Captured protein in the assay plates were then washed and probed with 25 μL per well of […] rabbit monoclonal anti-pY705-STAT3 antibody (STAT3) or […] rabbit monoclonal Anti-pY641-STAT6 antibody (STAT6) in 1% Blocker-A for 1 hour at room temperature with shaking, then washed and probed with 25 ul per well of 1 ug/ml Sulfo-TAG Labeled Goat Anti-Rabbit Antibody (MSD) in 1% Blocker-A for 1 hour at room temperature with shaking. Assay plates were then washed and 150 μL of 1× Read Buffer-T (MSD) was added to each well prior to reading on an SQ120 MSD Plate Reader. Assay signal from each sample was subtracted by the signal from unstimulated control wells and normalized to DMSO control wells. IC50 values were calculated using Graph Pad Prism Dose-Response Nonlinear Regression with variable slope. For both pSTAT3 and pSTAT6 A=≤100 nM; B=>100-1000 nM; C=>1000-3000 nM; and D=>3 μM.

In another assay the target is T3, STAT3 (Homo sapiens, UniProt P40763).
T3 construct: Recombinant STAT3 protein (STAT3(G127-I722))
T3 sequence (P40763 127-722): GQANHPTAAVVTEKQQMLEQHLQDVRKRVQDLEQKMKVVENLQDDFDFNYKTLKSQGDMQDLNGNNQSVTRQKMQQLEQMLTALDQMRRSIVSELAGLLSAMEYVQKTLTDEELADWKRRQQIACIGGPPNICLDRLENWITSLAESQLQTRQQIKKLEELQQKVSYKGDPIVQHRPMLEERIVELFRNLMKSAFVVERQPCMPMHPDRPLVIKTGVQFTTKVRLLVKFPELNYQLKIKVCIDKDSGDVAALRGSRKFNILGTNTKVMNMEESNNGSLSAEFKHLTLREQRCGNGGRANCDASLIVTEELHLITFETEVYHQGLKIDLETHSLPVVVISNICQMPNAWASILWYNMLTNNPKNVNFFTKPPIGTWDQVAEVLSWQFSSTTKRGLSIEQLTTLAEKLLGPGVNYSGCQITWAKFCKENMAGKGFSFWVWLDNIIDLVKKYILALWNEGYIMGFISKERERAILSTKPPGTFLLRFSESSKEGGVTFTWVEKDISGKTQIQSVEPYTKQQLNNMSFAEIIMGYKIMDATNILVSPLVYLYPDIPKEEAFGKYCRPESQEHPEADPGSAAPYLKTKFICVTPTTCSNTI
In words: STAT3 Fluorescence Polarization (FP) Assay. Format: binding. Summed up:
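Recombinant STAT3 (G127–I722, 25 nM) was mixed with 2 nM 5-FAM-GpYLPQTV-NH2 probe in HEPES pH 7.4 buffer with 1% DMSO and serially diluted compound. Fluorescence polarization was read after 45 min at room temperature. IC50 came from nonlinear regression of mP versus log concentration and was binned A (≤100 nM), B (>100–1000 nM), C (>1–10 μM) or D (>10 μM).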

pIC50: −log10 of the molar value.

With `N#CC1CN(C(=O)C2CCC3CCCCC(NC(=O)c4cc5cc(C(F)(F)P(=O)(O)O)ccc5s4)C(=O)N32)CC1c1cccc(OCCOCCOc2cccc3c2CN(C2CCC(=O)NC2=O)C3=O)c1` [Compound 16, ((2-(((3S,6S,10aS)-3-((rel-3S,4R)-3-cyano-4-(3-(2-(2-((2-(2,6-dioxopiperidin-3-yl)-1-oxoisoindolin-4-yl)oxy)ethoxy)ethoxy)phenyl)pyrrolidine-1-carbonyl)-5-oxodecahydropyrrolo[1,2-a]azocin-6-yl)carbamoyl)benzo[b]thiophen-5-yl)difluoromethyl)phosphonic acid], the pIC50 against STAT6 is 5.52 to 6.52; on pSTAT6 it was 5.52 to 6.00; at STAT3 it was 6.00 to 7.00.

Turning to `O=C1CCC(c2ccc(OCCCCCn3ccc([C@@H]4CN(C(=O)[C@@H]5CC[C@@H]6CCCC[C@H](NC(=O)c7cc8cc(C(F)(F)P(=O)(O)O)ccc8s7)C(=O)N65)C5(CC5)C4)cc3=O)cc2)C(=O)N1` (stereo partly drawn) [Compound 17, ((2-(((3S,6S,10aS)-3-((6R)-6-(1-(5-(4-(2,6-dioxopiperidin-3-yl)phenoxy)pentyl)-2-oxo-1,2-dihydropyridin-4-yl)-4-azaspiro[2.4]heptane-4-carbonyl)-5-oxodecahydropyrrolo[1,2-a]azocin-6-yl)carbamoyl)benzo[b]thiophen-5-yl)difluoromethyl)phosphonic acid], the figures for the pIC50 against STAT6, at pSTAT6 and against STAT3 were over 6.52, 5.52 to 6.00 and 5.00 to 6.00, respectively.

For `O=C1CCC(c2ccc(OCCCCCOc3cc([C@@H]4CN(C(=O)[C@@H]5CC[C@@H]6CCCC[C@H](NC(=O)c7cc8cc(C(F)(F)P(=O)(O)O)ccc8s7)C(=O)N65)C5(CC5)C4)ccn3)cc2)C(=O)N1` (stereo partly drawn) [Compound 19, ((2-(((3S,6S,10aS)-3-((6R)-6-(2-((5-(4-(2,6-dioxopiperidin-3-yl)phenoxy)pentyl)oxy)pyridin-4-yl)-4-azaspiro[2.4]heptane-4-carbonyl)-5-oxodecahydropyrrolo[1,2-a]azocin-6-yl)carbamoyl)benzo[b]thiophen-5-yl)difluoromethyl)phosphonic acid], the pIC50 was 5.52 to 6.52 at STAT6, under 5.52 at pSTAT6 and 5.00 to 6.00 against STAT3.

For the compound `N#CC1CN(C(=O)C2CCC3CCCCC(NC(=O)c4cc5cc(C(F)(F)P(=O)(O)O)ccc5s4)C(=O)N32)CC1c1cccc(N2CCN(c3ccc4c(c3)[nH]c(=O)n4C3CCC(=O)NC3=O)CC2)c1` [Compound 22, ((2-(((3S,6S,10aS)-3-((rel-3S,4R)-3-cyano-4-(3-(4-(1-(2,6-dioxopiperidin-3-yl)-2-oxo-2,3-dihydro-1H-benzo[d]imidazol-5-yl)piperazin-1-yl)phenyl)pyrrolidine-1-carbonyl)-5-oxodecahydropyrrolo[1,2-a]azocin-6-yl)carbamoyl)benzo[b]thiophen-5-yl)difluoromethyl)phosphonic acid], the negative logarithm of the IC50 (pIC50) at STAT6 is over 6.52; at pSTAT6, 5.52 to 6.00; against STAT3, 6.00 to 7.00.

With `O=C1CCC(n2c(=O)[nH]c3cc(N4CCC(n5ccc([C@@H]6CN(C(=O)[C@@H]7CC[C@@H]8CCCC[C@H](NC(=O)c9cc%10cc(C(F)(F)P(=O)(O)O)ccc%10s9)C(=O)N87)C7(CC7)C6)cc5=O)CC4)ccc32)C(=O)N1` (stereo partly drawn) [Compound 24, ((2-(((3S,6S,10aS)-3-((6R)-6-(1-(1-(1-(2,6-dioxopiperidin-3-yl)-2-oxo-2,3-dihydro-1H-benzo[d]imidazol-5-yl)piperidin-4-yl)-2-oxo-1,2-dihydropyridin-4-yl)-4-azaspiro[2.4]heptane-4-carbonyl)-5-oxodecahydropyrrolo[1,2-a]azocin-6-yl)carbamoyl)benzo[b]thiophen-5-yl)difluoromethyl)phosphonic acid], the negative-log IC50 (pIC50) on STAT6 was 5.52 to 6.52; at pSTAT6 it was under 5.52; against STAT3, 5.00 to 6.00.

As for `O=C1CCC(N2Cc3c(OCCOCCOCCn4ccc([C@@H]5CN(C(=O)[C@@H]6CC[C@@H]7CCCC[C@H](NC(=O)c8cc9cc(C(F)(F)P(=O)(O)O)ccc9s8)C(=O)N76)C6(CC6)C5)cc4=O)cccc3C2=O)C(=O)N1` (stereo partly drawn) [Compound 27, ((2-(((3S,6S,10aS)-3-((6R)-6-(1-(2-(2-(2-((2-(2,6-dioxopiperidin-3-yl)-1-oxoisoindolin-4-yl)oxy)ethoxy)ethoxy)ethyl)-2-oxo-1,2-dihydropyridin-4-yl)-4-azaspiro[2.4]heptane-4-carbonyl)-5-oxodecahydropyrrolo[1,2-a]azocin-6-yl)carbamoyl)benzo[b]thiophen-5-yl)difluoromethyl)phosphonic acid], the figures for the pIC50 on STAT6, on pSTAT6 and against STAT3 were 5.52 to 6.52, under 5.52 and 5.00 to 6.00, respectively.
